Measurements taken from PubChem BioAssay AID256 (DTP/NCI, 2004).
Inconclusive results and toxic doses are left out. Rule for the calls: active = survival T/C of 150% or more; inactive = T/C below 125% in these data.

Test system: CD2F1 mice, L1210 leukemia ip, survival T/C
Assay: NCI In Vivo Anticancer Drug Screen. Data for tumor model L1210 Leukemia (intraperitoneal) in CD2F1 (CDF1) mice
Conditions: higher = longer survival
In short: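 Activity against a transplanted murine tumor was judged by comparing the compound group with a vehicle group. The outcome in the treated animals was divided by that in the controls.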

[1] = endpoint: mean survival time, dose: 100.0 mg/kg/injection, schedule: Q01DX009 (ip), vehicle: saline with Tween-80
[2] = endpoint: mean survival time, dose: 100.0 mg/kg/injection, schedule: Q04DX003 (ip), vehicle: saline with Tween-80
[3] = endpoint: mean survival time, dose: 200.0 mg/kg/injection, schedule: Q01DX009 (ip), vehicle: saline with Tween-80
[4] = endpoint: mean survival time, dose: 200.0 mg/kg/injection, schedule: Q04DX003 (ip), vehicle: saline with Tween-80
[5] = endpoint: mean survival time, dose: 400.0 mg/kg/injection, schedule: Q01DX009 (ip), vehicle: saline with Tween-80
[6] = endpoint: mean survival time, dose: 400.0 mg/kg/injection, schedule: Q04DX003 (ip), vehicle: saline with Tween-80
[7] = endpoint: mean survival time, dose: 100.0 mg/kg/injection, schedule: Q01DX009 (ip), vehicle: Klucel (hydroxypropylcellulose) (HPC)
[8] = endpoint: mean survival time, dose: 200.0 mg/kg/injection, schedule: Q01DX009 (ip), vehicle: Klucel (hydroxypropylcellulose) (HPC)
[9] = endpoint: mean survival time, dose: 400.0 mg/kg/injection, schedule: Q01DX009 (ip), vehicle: Klucel (hydroxypropylcellulose) (HPC)
[10] = endpoint: mean survival time, dose: 12.5 mg/kg/injection, schedule: Q01DX005 (ip), vehicle: distilled water + Tween-80
[11] = endpoint: mean survival time, dose: 25.0 mg/kg/injection, schedule: Q01DX005 (ip), vehicle: distilled water + Tween-80
[12] = endpoint: mean survival time, dose: 50.0 mg/kg/injection, schedule: Q01DX005 (ip), vehicle: distilled water + Tween-80
[13] = endpoint: mean survival time, dose: 100.0 mg/kg/injection, schedule: Q01DX005 (ip), vehicle: distilled water + Tween-80
[14] = endpoint: mean survival time, dose: 200.0 mg/kg/injection, schedule: Q01DX005 (ip), vehicle: distilled water + Tween-80

Measured: T/C

C=CCCC(=O)CCCC(=O)O[C@@H]1[C@@H]2[C@H](CC1(C)C)[C@H](O)[C@@]13O[C@@H]1[C@H](O)[C@@]1(CO1)[C@@]23C
inactive: endpoint: mean survival time, dose: 6.2 micrograms/kg/injection, schedule: Q01DX009 (ip), vehicle: saline 95 % of control | endpoint: mean survival time, dose: 12.5 micrograms/kg/injection, schedule: Q01DX009 (ip), vehicle: saline 89 % of control | endpoint: mean survival time, dose: 25.0 micrograms/kg/injection, schedule: Q01DX009 (ip), vehicle: saline 95 % of control | endpoint: mean survival time, dose: 50.0 micrograms/kg/injection, schedule: Q01DX009 (ip), vehicle: saline 97 % of control | endpoint: median survival time, dose: 25.0 micrograms/kg/injection, schedule: Q01DX009 (ip), vehicle: Klucel (hydroxypropylcellulose) (HPC) 101 % of control | endpoint: median survival time, dose: 50.0 micrograms/kg/injection, schedule: Q01DX009 (ip), vehicle: Klucel (hydroxypropylcellulose) (HPC) 101 % of control | endpoint: median survival time, dose: 100.0 micrograms/kg/injection, schedule: Q01DX009 (ip), vehicle: Klucel (hydroxypropylcellulose) (HPC) 100 % of control | endpoint: median survival time, dose: 200.0 micrograms/kg/injection, schedule: Q01DX009 (ip), vehicle: Klucel (hydroxypropylcellulose) (HPC) 94 % of control | endpoint: median survival time, dose: 400.0 micrograms/kg/injection, schedule: Q01DX009 (ip), vehicle: Klucel (hydroxypropylcellulose) (HPC) 97 % of control

COC1OC2COC(c3ccccc3)OC2C(O)C1O (configuration not stated)
inactive: endpoint: mean survival time, dose: 100.0 mg/kg/injection, schedule: Q04DX003 (ip), vehicle: Klucel (hydroxypropylcellulose) (HPC) 105 % of control | endpoint: mean survival time, dose: 200.0 mg/kg/injection, schedule: Q04DX003 (ip), vehicle: Klucel (hydroxypropylcellulose) (HPC) 95 % of control | endpoint: mean survival time, dose: 400.0 mg/kg/injection, schedule: Q04DX003 (ip), vehicle: Klucel (hydroxypropylcellulose) (HPC) 95 % of control

CCCCCCCC(=O)Nc1ccc(CC)cc1
inactive: [1] 107 % of control | [2] 95 % of control | [3] 105 % of control | [4] 103 % of control | [5] 107 % of control | [6] 93 % of control

CCCN1OC2CC/C=C\CCC2C1c1ccccc1 (configuration not stated)
inactive: [7] 100 % of control | endpoint: mean survival time, dose: 100.0 mg/kg/injection, schedule: Q04DX003 (ip), vehicle: other 101 % of control | [8] 100 % of control | endpoint: mean survival time, dose: 200.0 mg/kg/injection, schedule: Q04DX003 (ip), vehicle: other 107 % of control | [9] 88 % of control | endpoint: mean survival time, dose: 400.0 mg/kg/injection, schedule: Q04DX003 (ip), vehicle: other 106 % of control

ClC=P(c1ccccc1)(c1ccccc1)c1ccccc1
inactive: [1] 96 % of control | [3] 92 % of control

Cc1cccc(CN=C(N)CCl)n1
inactive: endpoint: mean survival time, dose: 100.0 mg/kg/injection, schedule: Q04DX002 (ip), vehicle: saline 111 % of control | endpoint: mean survival time, dose: 200.0 mg/kg/injection, schedule: Q04DX002 (ip), vehicle: saline 116 % of control

CC1C(C(=O)c2ccc(-c3ccccc3)cc2)N1c1ccccc1 (configuration not stated)
inactive: endpoint: mean survival time, dose: 100.0 mg/kg/injection, schedule: Q01DX001 (ip), vehicle: Klucel (hydroxypropylcellulose) (HPC) 94 % of control | endpoint: mean survival time, dose: 200.0 mg/kg/injection, schedule: Q01DX001 (ip), vehicle: Klucel (hydroxypropylcellulose) (HPC) 101 % of control | endpoint: mean survival time, dose: 400.0 mg/kg/injection, schedule: Q01DX001 (ip), vehicle: Klucel (hydroxypropylcellulose) (HPC) 86 % of control

CCCC(=O)OCc1ccc(Cl)cc1Cl
inactive: [1] 96 % of control | [2] 91 % of control | [3] 98 % of control | [4] 89 % of control | [5] 98 % of control | [6] 96 % of control

O=c1[nH]c(=O)c2ncn(C3OC(CO)C(O)C3O)c2[nH]1.O=c1[nH]c(=O)c2ncn(C3OC(CO)C(O)C3O)c2[nH]1.[NH2-].[NH2-].[Pt+2] (configuration not stated)
inactive: endpoint: mean survival time, dose: 6.25 mg/kg/injection, schedule: Q#A X018 (ip), vehicle: water 116 % of control | endpoint: mean survival time, dose: 12.5 mg/kg/injection, schedule: Q04DX003 (ip), vehicle: water 106 % of control | endpoint: mean survival time, dose: 12.5 mg/kg/injection, schedule: Q#A X018 (ip), vehicle: water 116 % of control | endpoint: mean survival time, dose: 25.0 mg/kg/injection, schedule: Q#A X018 (ip), vehicle: water 124 % of control | endpoint: mean survival time, dose: 50.0 mg/kg/injection, schedule: Q04DX003 (ip), vehicle: water 106 % of control | endpoint: mean survival time, dose: 100.0 mg/kg/injection, schedule: Q04DX003 (ip), vehicle: water 111 % of control | endpoint: mean survival time, dose: 200.0 mg/kg/injection, schedule: Q04DX003 (ip), vehicle: water 106 % of control | endpoint: mean survival time, dose: 400.0 mg/kg/injection, schedule: Q04DX003 (ip), vehicle: water 118 % of control

c1ccc(CNc2ccccn2)cc1
inactive: [2] 97 % of control | [4] 97 % of control | [6] 95 % of control

N#CCC(=O)OCCCCOC(=O)CC#N
inactive: [1] 96 % of control | [2] 103 % of control | [3] 97 % of control | [4] 97 % of control | [5] 96 % of control | [6] 100 % of control

O=S(=O)(O)CCCl
inactive: endpoint: mean survival time, dose: 50.0 mg/kg/injection, schedule: Q01DX009 (ip), vehicle: saline with Tween-80 96 % of control | [1] 96 % of control | [3] 96 % of control

COc1ccc2c(c1)CC/C2=N/O
inactive: [2] 97 % of control | [4] 103 % of control | [6] 107 % of control

CCCCC(NC(=O)CN)C(=O)O (configuration not stated)
inactive: endpoint: mean survival time, dose: 75.0 mg/kg/injection, schedule: Q04DX002 (ip), vehicle: saline with Tween-80 111 % of control | endpoint: mean survival time, dose: 150.0 mg/kg/injection, schedule: Q04DX002 (ip), vehicle: saline with Tween-80 91 % of control | endpoint: mean survival time, dose: 300.0 mg/kg/injection, schedule: Q04DX002 (ip), vehicle: saline with Tween-80 106 % of control

CC(C)(CNC1CCCCC1)OC(=O)c1ccc([N+](=O)[O-])cc1
inactive: endpoint: mean survival time, dose: 75.0 mg/kg/injection, schedule: Q01DX001 (ip), vehicle: saline 94 % of control | endpoint: mean survival time, dose: 150.0 mg/kg/injection, schedule: Q01DX001 (ip), vehicle: saline 99 % of control | endpoint: mean survival time, dose: 300.0 mg/kg/injection, schedule: Q01DX001 (ip), vehicle: saline 94 % of control

C=C(Br)CNC(=O)C(F)(F)F
inactive: endpoint: mean survival time, dose: 6.25 mg/kg/injection, schedule: Q01DX009 (ip), vehicle: saline 100 % of control | endpoint: mean survival time, dose: 6.25 mg/kg/injection, schedule: Q04DX003 (ip), vehicle: saline 96 % of control | endpoint: mean survival time, dose: 12.5 mg/kg/injection, schedule: Q01DX009 (ip), vehicle: saline 102 % of control | endpoint: mean survival time, dose: 12.5 mg/kg/injection, schedule: Q04DX003 (ip), vehicle: saline 98 % of control | endpoint: mean survival time, dose: 25.0 mg/kg/injection, schedule: Q01DX009 (ip), vehicle: saline 108 % of control | endpoint: mean survival time, dose: 25.0 mg/kg/injection, schedule: Q04DX003 (ip), vehicle: saline 93 % of control

COc1cc(OC)c(OC)cc1/C=c1\[nH]c(=O)/c(=C/c2cc(OC)c(OC)cc2OC)[nH]c1=O
inactive: endpoint: mean survival time, dose: 3.13 mg/kg/injection, schedule: Q01DX009 (ip), vehicle: saline with Tween-80 102 % of control | endpoint: mean survival time, dose: 6.25 mg/kg/injection, schedule: Q01DX009 (ip), vehicle: saline with Tween-80 90 % of control | endpoint: mean survival time, dose: 12.5 mg/kg/injection, schedule: Q01DX009 (ip), vehicle: saline with Tween-80 91 % of control | [4] 87 % of control

Nc1nc(=Nc2ccccc2)n(C2OCC(O)C(O)C2O)c2ccccc12 (configuration not stated)
inactive: [10] 94 % of control | [11] 94 % of control | [12] 93 % of control | [13] 90 % of control | [14] 86 % of control

O=c1[nH]cnc2c1cnn2CN1CCOCC1
inactive: endpoint: median survival time, dose: 25.0 mg/kg/injection, schedule: Q01DX009 (ip), vehicle: Klucel (hydroxypropylcellulose) (HPC) 106 % of control | endpoint: median survival time, dose: 50.0 mg/kg/injection, schedule: Q01DX009 (ip), vehicle: Klucel (hydroxypropylcellulose) (HPC) 106 % of control | endpoint: median survival time, dose: 100.0 mg/kg/injection, schedule: Q01DX009 (ip), vehicle: Klucel (hydroxypropylcellulose) (HPC) 110 % of control | endpoint: median survival time, dose: 200.0 mg/kg/injection, schedule: Q01DX009 (ip), vehicle: Klucel (hydroxypropylcellulose) (HPC) 114 % of control

CC(=O)OC1C(OC(C)=O)C(OC(C)=O)C(OS(C)(=O)=O)C(OC(=O)c2ccccc2)C1OC(C)=O (configuration not stated)
inactive: [7] 96 % of control | [8] 86 % of control | [9] 91 % of control

CCC1OC2CS(=O)(=O)CC2O1 (configuration not stated)
inactive: [2] 96 % of control | [4] 96 % of control | [6] 96 % of control

Nc1nc(=O)n2ccn(C3OC(CO)C(O)C3O)c2n1 (configuration not stated)
inactive: [10] 103 % of control | [11] 100 % of control | [12] 100 % of control | [13] 100 % of control | [14] 103 % of control

Cc1cc(S(=O)(=O)F)cc(Cl)c1S
inactive: endpoint: mean survival time, dose: 100.0 mg/kg/injection, schedule: Q04DX002 (ip), vehicle: saline with Tween-80 102 % of control
